Results from paper PMC12326981, “Novel C5α-substituted carbapenems enhance Mycobacterium abscessus killing via selective target binding and reduced hydrolysis by BlaMab” (Antimicrobial Agents and Chemotherapy, 2025).
“And” between values parts separate entries of the source, which are not always exact repeats. Identical values can stand only once. Like-named read-outs stand apart in the source and are kept apart here.

Key:
Mab ATCC 19977 = experiment: MIC testing against Mab ATCC 19977, single agent and combinations; type: cell-based, Mycobacterium abscessus
Method: MICs were determined in duplicate following Clinical Laboratory Standards Institute ([52]) guidelines using Middlebrook 7H9 broth supplemented with 10% (vol/vol) oleic acid-albumin-dextrose-catalase (OADC) and 0.05% (vol/vol) Tween 80, with an inoculum of 5 × 10⁵ CFU/mL. MIC testing of two C5α-substituted carbapenems was conducted both individually and in combination with cephalosporins (cefuroxime and ceftaroline), penicillins (amoxicillin), or BLIs (avibactam or durlobactam + sulbactam). Avibactam, durlobactam, cefuroxime, ceftaroline, and amoxicillin were fixed at concentrations of 4, 1, 2, 4, and 4 mg/L, respectively. […] The MIC was defined as the lowest antibiotic concentration that inhibited visible bacterial growth following 48 h of incubation at 30°C.

18 clinical isolates = experiment: MIC distribution against 18 clinical isolates (and Mab ATCC 19977); type: cell-based, Mycobacterium abscessus; details: single agent, 18 clinical isolates (Fig. 3 also Mab ATCC 19977)
Description: We investigated the effect of C5α-substituted carbapenems (C5α-methyl, JDB/NA-1-157 or 10a and C5α-ethyl, JDB/NA-1-208, or 10b) against Mab strain ATCC 19977, which produces BlaMab, alongside 18 clinical isolates obtained from de-identified patients. These clinical isolates were sourced from National Jewish Health, University Hospitals Cleveland Medical Center, and Cleveland MetroHealth. The strains were utilized for MIC assays and static drug concentration time-kill (SCTK) experiments. Two C5α-substituted carbapenems were designed and synthesized in the Buynak lab at SMU ([31]). The active forms of cefuroxime salts, imipenem, amoxicillin, sulbactam, and avibactam were purchased from AchemBlock, while durlobactam was provided by Innoviva Specialty Therapeutics. All β-lactams and BLIs were prepared in sterile distilled water and subsequently filter-sterilized using a 0.22 µm polyethersulfone syringe filter.
MICs were determined in duplicate following Clinical Laboratory Standards Institute ([52]) guidelines using Middlebrook 7H9 broth supplemented with 10% (vol/vol) oleic acid-albumin-dextrose-catalase (OADC) and 0.05% (vol/vol) Tween 80, with an inoculum of 5 × 10⁵ CFU/mL. […]

BlaMab = BlaMab (Mycobacteroides abscessus, UniProt B1MCI3); experiment: Steady-state kinetics of hydrolysis by BlaMab; type: biochemical, Mycobacterium abscessus; details: best-fit value (95% confidence interval); MES buffer pH 6.4, room temperature
BlaMab, sequence (B1MCI3 entry or part of it): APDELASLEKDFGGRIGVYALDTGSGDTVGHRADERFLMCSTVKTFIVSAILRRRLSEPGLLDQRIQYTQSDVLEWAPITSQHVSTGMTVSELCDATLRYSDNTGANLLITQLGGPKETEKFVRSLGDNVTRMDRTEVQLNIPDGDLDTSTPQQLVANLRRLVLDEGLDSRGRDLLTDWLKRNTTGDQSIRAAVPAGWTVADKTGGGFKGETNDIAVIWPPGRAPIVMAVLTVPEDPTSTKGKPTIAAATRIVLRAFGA

PBP-lipo = molecular target: T1, PBP-lipo (Mycobacteroides abscessus, UniProt B1MDC3); experiment: Apparent inhibition constant (nitrocefin, Dixon plot); type: biochemical; details: Ki,app
T1 construct: made in house; host or cells: Escherichia coli BL21 (DE3)
T1 sequence (B1MDC3 entry or part of it): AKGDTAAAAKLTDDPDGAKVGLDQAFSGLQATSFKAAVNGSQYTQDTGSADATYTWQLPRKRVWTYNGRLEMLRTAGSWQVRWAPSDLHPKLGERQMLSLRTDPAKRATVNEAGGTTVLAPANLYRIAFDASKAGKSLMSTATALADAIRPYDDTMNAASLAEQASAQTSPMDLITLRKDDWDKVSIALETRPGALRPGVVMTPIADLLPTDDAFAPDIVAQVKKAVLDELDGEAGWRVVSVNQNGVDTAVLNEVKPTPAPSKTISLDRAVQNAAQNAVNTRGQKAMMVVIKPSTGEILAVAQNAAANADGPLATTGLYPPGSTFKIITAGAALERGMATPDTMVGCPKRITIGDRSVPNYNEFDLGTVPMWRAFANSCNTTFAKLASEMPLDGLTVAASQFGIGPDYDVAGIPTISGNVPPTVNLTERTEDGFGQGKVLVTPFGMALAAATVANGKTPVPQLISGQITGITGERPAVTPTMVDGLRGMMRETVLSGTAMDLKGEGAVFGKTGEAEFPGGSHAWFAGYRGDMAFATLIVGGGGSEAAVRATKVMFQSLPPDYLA
Method: (§1) Steady-state kinetic studies with JDB/NA-1-157 and JDB/NA-1-208 were performed using purified LDTs and PBPs, including LDT1–5, PBP-B, PBP-lipo, and D,D-carboxypeptidase. The assays were conducted on a BioTek Synergy2 multimode reader equipped with Gen5 software. To determine the Michaelis constant (Km^NCF) for each LDT and PBP, a wide range of NCF concentrations was tested, while the enzyme concentrations were fixed. Absorbance changes at 482 nm were monitored over 10 min. Steady-state kinetic parameters (Vmax and Km) were derived by fitting the experimental data to the Henri–Michaelis–Menten equation using nonlinear least-squares regression in GraphPad Prism version 9. The reaction velocity (v) at a given substrate concentration ([S]) was calculated using equation 2: […]
(§2) The apparent inhibition constants (Ki,app) for JDB/NA-1-157 and JDB/NA-1-208 were determined under the following conditions: an NCF concentration of 5 × Km, fixed concentrations of LDT or PBP enzymes, and varying concentrations of JDB/NA-1-157 and JDB/NA-1-208. Absorbance changes at 482 nm were monitored over a 30 min period for each inhibitor concentration. The data were linearized using a Dixon plot, which involves plotting the reciprocal of the absorbance change (1/ΔA) against the concentrations of JDB/NA-1-157 or JDB/NA-1-208. Apparent Ki,app values were derived from the intersection points on the Dixon plot and were subsequently corrected for substrate concentration and enzyme affinity using equation 3:
(§3) (3) Ki,app=observed Ki,app/1+[NCF]/Km NCF.

PBP B = PBP B (Mycobacteroides abscessus, UniProt B1MP31); experiment: Mass spectrometric analysis of acyl-enzyme adducts; type: binding; details: PBP B (65,863); 1:10 molar ratio, 2 h; accuracy ±5 Da
PBP B, sequence (B1MP31 entry or part of it): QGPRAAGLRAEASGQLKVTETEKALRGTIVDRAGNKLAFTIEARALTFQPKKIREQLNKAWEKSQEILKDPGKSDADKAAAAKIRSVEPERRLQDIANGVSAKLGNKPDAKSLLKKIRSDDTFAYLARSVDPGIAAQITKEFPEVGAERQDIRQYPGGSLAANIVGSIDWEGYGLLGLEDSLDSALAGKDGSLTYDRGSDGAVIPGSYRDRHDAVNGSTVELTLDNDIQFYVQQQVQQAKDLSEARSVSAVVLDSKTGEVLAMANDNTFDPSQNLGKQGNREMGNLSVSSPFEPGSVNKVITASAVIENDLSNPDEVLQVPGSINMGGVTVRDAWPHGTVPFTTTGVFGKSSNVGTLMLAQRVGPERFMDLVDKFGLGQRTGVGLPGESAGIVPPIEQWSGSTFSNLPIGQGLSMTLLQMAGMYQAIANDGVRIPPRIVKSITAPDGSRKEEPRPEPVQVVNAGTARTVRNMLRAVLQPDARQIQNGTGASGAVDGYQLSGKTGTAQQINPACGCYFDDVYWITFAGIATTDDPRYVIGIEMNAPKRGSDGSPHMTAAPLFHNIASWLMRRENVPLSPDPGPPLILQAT
Method: Truncated sequences of BlaMab (Δ1–30 blaMab), LDT1–5, DDC, PBP B, PonA2, and PBP-lipo (Δ1–41) were synthesized by Celtek Biosciences (Franklin, TN) and cloned into the pET28(a)+ vector. Purification of LDTs and PBPs was carried out as previously described ([15], [16], [20]). Briefly, clones were transformed into Escherichia coli BL21 (DE3), and protein expression was induced with 0.25 mM isopropyl β-d-1-thiogalactopyranoside. Cell pellets were resuspended in buffer containing 50 mM Tris (pH 8.0), 400 mM sodium chloride, and 1 mM Tris(2-carboxyethyl)phosphine hydrochloride and lysed by sonication. After centrifugation, the supernatant was purified using a His Prep FF column and eluted with 500 mM imidazole.
The purified proteins were incubated at room temperature with JDB/NA-1-157 and JDB/NA-1-208 at a molar ratio of 1:10 for 2 h. A quadrupole time-of-flight mass spectrometer (Waters Synapt-G2-Si) with electrospray ionization and a Waters Acquity H-Class UPLC system were used to analyze the samples. The liquid chromatography conditions were as follows: a BEH C18 column (1.7 µm, 2.1 × 50 mm) and a mobile phase consisting of 0.1% formic acid in water and 0.1% formic acid in acetonitrile, with a gradient elution from 10% to 90% acetonitrile over 11 min at a flow rate of 0.5 mL/min. […]

LDT5 = LDT5 (Mycobacteroides abscessus, UniProt B1MHQ4); experiment: Apparent inhibition constant (nitrocefin, Dixon plot); type: biochemical, Mycobacterium abscessus; details: read-out: Ki,app
LDT5, sequence (B1MHQ4 entry or part of it): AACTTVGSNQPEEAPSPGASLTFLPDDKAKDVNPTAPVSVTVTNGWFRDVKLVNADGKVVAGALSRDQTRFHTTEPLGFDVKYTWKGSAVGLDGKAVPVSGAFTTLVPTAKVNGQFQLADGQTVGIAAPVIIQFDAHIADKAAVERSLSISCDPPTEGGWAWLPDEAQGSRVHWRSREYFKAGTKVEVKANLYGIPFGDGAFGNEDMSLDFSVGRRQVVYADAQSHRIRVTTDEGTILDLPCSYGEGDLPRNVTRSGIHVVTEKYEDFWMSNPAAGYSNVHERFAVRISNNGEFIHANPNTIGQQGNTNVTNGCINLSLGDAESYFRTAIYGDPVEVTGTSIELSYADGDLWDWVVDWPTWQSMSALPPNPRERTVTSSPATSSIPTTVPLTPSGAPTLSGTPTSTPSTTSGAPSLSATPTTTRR
Method: as §1, §2, §3

[1] = Mycobacteroides abscessus, ATCC19977, 48 h, alone (single agent), read-out: MIC

Row | Structure (SMILES) | MIC (Mab ATCC 19977; +AMX (4 mg/L) + AVI (4 mg/L)) | MIC (Mab ATCC 19977; +AVI (4 mg/L)) | MIC (Mab ATCC 19977; +CFT (4 mg/L)) | MIC (Mab ATCC 19977; +CXM (2 mg/L)) | MIC (Mab ATCC 19977; +DUR (1 mg/L)) | MIC (Mab ATCC 19977; [1]) | fold reduction in MIC on combination (Mab ATCC 19977; combined with cefuroxime, ceftaroline, or amoxicillin (with avibactam), Table 1, Fig. 3) | MIC range (18 clinical isolates) | kcat (BlaMab) | Ki (PBP-lipo) | Mass of protein after incubation (mass shift) (PBP B) | Ki (LDT5)
1 | C[C@@H](O)[C@H]1C(=O)N2C(C(=O)O)=C(S[C@@H]3CN[C@H](C(=O)N(C)C)C3)C[C@]12C [JDB/NA-1-157] | 0.125 µg/mL | 0.5 µg/mL | 0.125 µg/mL | 0.125 µg/mL | 0.25 µg/mL | 0.5 µg/mL | ≤ 4 fold | 0.125 to 8.0 µg/mL and 0.125 to 8 µg/mL | 0.03 s⁻¹ | 0.258 µM |  | 
2 | CC[C@]12CC(S[C@@H]3CN[C@H](C(=O)N(C)C)C3)=C(C(=O)O)N1C(=O)[C@@H]2[C@@H](C)O [JDB/NA-1-208] | ≤0.0313 µg/mL | 32 µg/mL | 4 µg/mL | 8 µg/mL | 32 µg/mL | 32 µg/mL |  |  |  |  | 66,262 (+397) Da | 28.9 µM
